14 compounds from ChEMBL document CHEMBL1145327, “Structural insights into monoamine oxidase inhibitory potency and selectivity of 7-substituted coumarins from ligand- and target-based approaches” (J Med Chem, 2006) can be followed below.

A word on the IC50: it is the concentration needed to halve the response being measured.

For assay [1], the target named is T1, Amine oxidase [flavin-containing] B (Rattus norvegicus, UniProt P19643).
T1 sequence (P19643 whole entry): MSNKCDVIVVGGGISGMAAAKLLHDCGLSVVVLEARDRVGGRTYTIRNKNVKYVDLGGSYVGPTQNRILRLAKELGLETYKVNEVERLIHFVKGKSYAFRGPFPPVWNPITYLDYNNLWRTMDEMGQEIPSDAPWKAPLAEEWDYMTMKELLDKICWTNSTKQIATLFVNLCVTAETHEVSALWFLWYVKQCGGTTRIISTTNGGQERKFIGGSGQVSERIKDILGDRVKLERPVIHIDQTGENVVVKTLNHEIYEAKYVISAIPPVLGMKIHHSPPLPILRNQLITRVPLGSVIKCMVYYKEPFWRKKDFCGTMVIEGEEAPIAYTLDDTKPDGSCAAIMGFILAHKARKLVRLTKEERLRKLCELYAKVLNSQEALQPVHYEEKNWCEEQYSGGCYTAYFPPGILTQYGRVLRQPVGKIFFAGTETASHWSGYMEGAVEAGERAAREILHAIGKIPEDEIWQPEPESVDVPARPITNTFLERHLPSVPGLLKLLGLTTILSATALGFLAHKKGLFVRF
The class given is mitochondria, Sprague-Dawley, Mitochondria.
Description: Inhibition of Sprague-Dawley rat brain mitochondria MAOB by continuous spectrophotometric assay

Assay [2] addresses T2, Amine oxidase [flavin-containing] A (Rattus norvegicus, UniProt P21396).
T2 sequence (P21396 whole entry): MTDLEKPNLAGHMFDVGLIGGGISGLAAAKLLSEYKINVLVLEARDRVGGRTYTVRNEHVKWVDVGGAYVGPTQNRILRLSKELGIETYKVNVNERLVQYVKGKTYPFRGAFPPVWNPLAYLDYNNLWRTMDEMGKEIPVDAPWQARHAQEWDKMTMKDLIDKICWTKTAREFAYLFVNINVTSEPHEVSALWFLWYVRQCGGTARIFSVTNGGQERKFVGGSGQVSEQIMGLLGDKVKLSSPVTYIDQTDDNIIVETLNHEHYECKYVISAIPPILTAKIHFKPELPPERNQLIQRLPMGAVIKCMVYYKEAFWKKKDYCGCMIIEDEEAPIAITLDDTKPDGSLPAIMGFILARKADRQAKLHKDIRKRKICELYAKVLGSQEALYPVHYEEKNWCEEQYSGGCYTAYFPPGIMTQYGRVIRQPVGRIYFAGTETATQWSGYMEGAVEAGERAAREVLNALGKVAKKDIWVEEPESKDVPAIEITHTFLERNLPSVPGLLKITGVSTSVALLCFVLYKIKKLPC
Format: mitochondria, Sprague-Dawley, Mitochondria.
Description: Inhibition of Sprague-Dawley rat brain mitochondria MAOA by continuous spectrophotometric assay

Consider `Cc1c(C)c2ccc(Oc3ccccc3)cc2oc1=O`, for which, in assay [1], the IC50 was 3240 nM. As for `Cc1c(C)c2ccc(S(=O)(=O)Cc3ccccc3)cc2oc1=O`, the values for the IC50 in assay [2] and in assay [1] were 18600 nM and 2750 nM, respectively.

Consider `Cc1c(C)c2ccc(SCc3ccccc3)cc2oc1=O`, for which the 50% inhibitory concentration (IC50) in assay [2] was 10000 nM; in assay [1], 39.8 nM. With `Cc1c(C)c2ccc(OCS(=O)(=O)c3ccccc3)cc2oc1=O`, the figures for the IC50 in assay [2] and in assay [1] were 2820 nM and 871 nM, respectively.

In the case of `Cc1cc2ccc(OCc3ccccc3)cc2oc1=O`, the IC50 was 5500 nM in assay [2] and 6.61 nM in assay [1]. For `Cc1c(C)c2ccc(OC[C@@H](O)c3ccccc3)cc2oc1=O` the same measures were 10000 nM and 28.2 nM. For the compound `Cc1c(C)c2ccc(OCCOc3ccccc3)cc2oc1=O`, the results for the IC50 in assay [2] and in assay [1] were 10200 nM and 26.9 nM, respectively. As for `O=C(OCc1ccc2ccc(=O)oc2c1)c1ccccc1`, the IC50 is 9550 nM in assay [2] and 2400 nM in assay [1]. Compound `Cc1ccc(S(=O)(=O)N(C)c2ccc3c(C)c(C)c(=O)oc3c2)cc1` had an IC50 in assay [2] of 4570 nM. `Cc1c(C)c2ccc(CCc3ccccc3)cc2oc1=O`: the IC50 is 7080 nM in assay [2] and 457 nM in assay [1].

For the compound `Cc1cc2ccc(OCc3cccc(Cl)c3)cc2oc1=O`, the IC50 in assay [2] is 12600 nM; in assay [1], 5.13 nM.

In turn, `Cc1c(C)c2ccc(OC/C=C/c3ccccc3)cc2oc1=O` had an IC50 in assay [1] of 112 nM. On to `Cc1c(C)c2ccc(OC[C@H](O)c3ccccc3)cc2oc1=O`, for which the IC50 is 3240 nM in assay [2] and 302 nM in assay [1]. On to `Cc1c(C)c2ccc(OCC(O)c3ccccc3)cc2oc1=O` (racemic), for which the IC50 is 10000 nM in assay [2] and 70.8 nM in assay [1].
